According to patent US6130058A, “Human NMDA R2A receptor subunit and isoforms of the human NMDA-R1 receptor subunit and encoding cDNAs” (Merck Sharpe & Dohme Ltd., priority 1992, dated 2000):

How the values were obtained:
[1] = target: recombinant R1a+R2A NMDA receptor expressed by population B cells (Homo sapiens, UniProt Q05586+Q12879); test: Whole cell patch clamp electrophysiology on population B cells; assay type: cell-based
Excerpt: The nature of the NMDA receptor expressed by population B cells has been extensively characterised by electrophysiological techniques, using whole cell patch clamp.

[2] = target: T1, recombinant R1a NMDA receptors (Homo sapiens, UniProt Q05586); test: [3H]-L-689,560 radioligand binding to membranes of R1a transfected Ltk- cells (population A); details: 1 nM radioligand, 100 μg protein, 2 hours on ice, dexamethasone-induced cells
T1 construct: expressed in transfected cells
Experimental: Ltk^- cells were obtained from the Salk Institute for Biological Studies, San Diego, Calif. Cells were grown at 37° C., 5-8% CO2, in Modified Eagles Medium containing penicillin, streptomycin and 10% fetal calf serum. […] For co-transfection, Ltk^- cells were plated in dishes (approx. 2×10^5 cells/dish) and grown overnight. The transfection was performed by calcium phosphate precipitation using a kit (purchased from 5 Prime→3 Prime Products, Westchester, Pa.). Co-transfection was performed according to manufacturers' instructions, using 5 μg of each subunit DNA construct per 10 cm dish of cells. After 2 days in culture the cells were divided 1:8 into culture medium containing 1 mg/ml neomycin [Geneticin (obtainable from Gibco BRL, Paisley, Scotland, United Kingdom)]. After a further week the concentration was increased to 1.5 mg/ml, and then 2 mg/ml 1 week after that. Resistant clones of cells were isolated and subcloned using cloning cylinders. Subclones were analysed using radioligand binding: subclones were grown in 10 cm culture dishes, and when confluent changed into culture medium containing 1 μM dexamethasone (obtainable from Sigma Chemical Company, Poole, Dorset, United Kingdom). […] Rev. Pharmacol. […] Non-specific binding was determined in a parallel incubation containing 10 mM glycine. […]

[3] = target: T2, recombinant R1a+R2A receptors (Homo sapiens, UniProt Q05586); test: [3H]-L-689,560 radioligand binding to membranes of R1a+R2A transfected Ltk- cells (population B)
T2 construct: expressed in transfected cells
Experimental: (§1) The nature of the recombinant R1a NMDA receptors prepared as described in Example 3 was addressed by characterization of the glycine site binding pharmacology, using the glycine site antagonist [^3 H]-L-689,560. For radioligand binding assays, cells which had been induced by culture in dexamethasone containing medium for 3-5 days were scraped off into 5 mM Tris-Acetate, pH 7.0 at 4° C. (buffer 1) and pelleted (20,000 rpm, Sorvall RC5C centrifuge). The cell pellet was resuspended in buffer 1, homogenised using an Ultra-Turrax homogeniser and then pelleted as above. This was repeated once more, and the cells then resuspended in 50 mM Tris-Acetate, pH 7.0 at 4° C. (buffer 2) at a protein concentration of 1 mg/ml. […] After 2 hours incubation on ice the membranes were harvested onto filters using a Brandel cell harvester, washed with cold buffer 2, and bound radioactivity determined by scintillation counting. Non-specific binding was determined in a parallel incubation containing 10 mM glycine. […]
(§2) For radioligand binding assays, cells which had been induced by culture in dexamethasone, MgCl2 and D-AP5 containing medium for 3-5 days were scraped off into 5 mM Tris-Acetate, pH 7.0 at 4° C. […] After 2 hours at 25° C. in the presence of 30 μM glycine and 30 μM L-glutamate the membranes were washed with buffer 1 and bound radioactivity determined by scintillation counting. […]

untransfected Ltk- cells = test: Radioligand binding to untransfected Ltk- cells (control); set-up: species or system mouse
Experimental: as §1, §2

[4] = target: recombinant R1a+R2A NMDA receptors (Homo sapiens, UniProt Q05586+Q12879); test: [3H]-dizocilpine radioligand binding to membranes of R1a+R2A transfected Ltk- cells (population B); details: 2 nM radioligand, 100 μg protein, 2 hours at 25° C., 30 μM glycine and 30 μM L-glutamate
Experimental: Ltk^- cells were obtained from the Salk Institute for Biological Studies, San Diego, Calif. Cells were grown at 37° C., 5-8% CO2, in Modified Eagles Medium containing penicillin, streptomycin and 10% fetal calf serum. […] For co-transfection, Ltk^- cells were plated in dishes (approx. 2×10^5 cells/dish) and grown overnight. The transfection was performed by calcium phosphate precipitation using a kit (purchased from 5 Prime→3 Prime Products, Westchester, Pa.). Co-transfection was performed according to manufacturers' instructions, using 5 μg of each subunit DNA construct per 10 cm dish of cells. After 2 days in culture the cells were divided 1:8 into culture medium containing 1 mg/ml neomycin [Geneticin (obtainable from Gibco BRL, Paisley, Scotland, United Kingdom)]. […] Subclones were analysed using radioligand binding: subclones were grown in 10 cm culture dishes, and when confluent changed into culture medium containing 1 μM dexamethasone (obtainable from Sigma Chemical Company, Poole, Dorset, United Kingdom). […]
For radioligand binding assays, cells which had been induced by culture in dexamethasone, MgCl2 and D-AP5 containing medium for 3-5 days were scraped off into 5 mM Tris-Acetate, pH 7.0 at 4° C. […] Non-specific binding was determined in a parallel incubation containing 100 μM dizocilpine.

O=C(O)[C@H]1C[C@@H](CP(=O)(O)O)CCN1 (relative stereo) [CGS 19,755]
antagonism of the response to glutamate and glycine [1]: antagonised

O=C(Nc1ccccc1)N[C@@H]1C[C@@H](C(=O)O)Nc2cc(Cl)cc(Cl)c21 (relative stereo) [[^3 H]-L-689,560]
level of [3H]-L-689,560 bound [2]: up to 3700 fmols/mg protein | level of [3H]-L-689,560 bound [3]: up to 500 fmols/mg protein | binding to untransfected Ltk- cells (untransfected Ltk- cells; [3H]-L-689,560 binding conditions, 1 nM): No binding

C[C@]12N[C@H](Cc3ccccc31)c1ccccc12 [[^3 H]-dizocilpine, dizocilpine]
level of [3H]-dizocilpine bound [4]: up to 200 fmols/mg protein | binding to untransfected Ltk- cells (untransfected Ltk- cells; [3H]-dizocilpine binding conditions, 2 nM): No binding
